Results reported in ChEMBL document CHEMBL1141831, “Alertenone, a dimer of suberosenone from Alertigorgia sp” (J Nat Prod, 1999).
Converted amounts (≈) assume the structure as drawn.

Assays:
[1] = Cytotoxicity against human LOX cells after 2 days by XTT assay; type: functional, cell-based; settings: 48 h
[2] = test system: Malme-3M; test: Cytotoxicity against human MALME-3M cells after 2 days by XTT assay; type: functional, cell-based; settings: 48 h
[3] = test system: OVCAR-3; test: Cytotoxicity against human OVCAR-3 cells after 2 days by XTT assay; type: functional, cell-based; settings: OVCAR-3, 48 h
[4] = test system: MCF7; test: Cytotoxicity against human MCF7 cells after 2 days by XTT assay; type: functional, cell-based; settings: MCF7, 48 h
[5] = test system: SF-539; test: Cytotoxicity against human SF-539 cells after 2 days by XTT assay; type: functional, cell-based; settings: SF-539, 48 h
[6] = test system: A549; test: Cytotoxicity against human A549 cells after 2 days by XTT assay; type: functional, cell-based; settings: A549, 48 h
[7] = test system: HOP-92; test: Cytotoxicity against human HOP-92 cells after 2 days by XTT assay; type: functional, cell-based; settings: HOP-92, 48 h
[8] = test system: M14; test: Cytotoxicity against human M14 cells after 2 days by XTT assay; type: functional, cell-based; settings: M14, 48 h
[9] = test system: SNB-19; test: Cytotoxicity against human SNB-19 cells after 2 days by XTT assay; type: functional, cell-based; settings: SNB-19, 48 h
[10] = test system: SF-295; test: Cytotoxicity against human SF-295 cells after 2 days by XTT assay; type: functional, cell-based; settings: SF-295, 48 h
[11] = test system: NCI-H522; test: Antitumor activity against human NCI-H522 cells xenografted in mouse assessed as cell growth at 40 mg/kg by hollow-fiber assay relative to control; type: functional
[12] = test system: U-251; test: Antitumor activity against human U251 cells xenografted in mouse assessed as cell growth at 40 mg/kg by hollow-fiber assay relative to control; type: functional

| Structure (SMILES) | IC50 [1] [µg/mL] | IC50 [2] [µg/mL] | IC50 [3] [µg/mL] | IC50 [4] [µg/mL] | IC50 [5] [µg/mL] | IC50 [6] [µg/mL] | IC50 [7] [µg/mL] | IC50 [8] [µg/mL] | IC50 [9] [µg/mL] | IC50 [10] [µg/mL] | Activity [11] [%] | Activity [12] [%] |
| --- | --- | --- | --- | --- | --- | --- | --- | --- | --- | --- | --- | --- |
| C=C1C(=O)[C@H](C[C@@H]2C(=O)C[C@H]3[C@@H]4CC[C@H](C)[C@]23CC4(C)C)[C@H]2[C@@H]3CC[C@H](C)[C@]12CC3(C)C [ALERTENONE] | > 100 | 40 (≈ 91.6 µM) | 35 (≈ 80.2 µM) | 40 (≈ 91.6 µM) | 35 (≈ 80.2 µM) | 40 (≈ 91.6 µM) | 45 (≈ 103 µM) | 40 (≈ 91.6 µM) | 45 (≈ 103 µM) | 35 (≈ 80.2 µM) |  |  |
| C=C1C(=O)C[C@H]2[C@@H]3CC[C@H](C)[C@]12CC3(C)C [SUBEROSENONE] | 0.006 (≈ 0.0275 µM) | 0.008 (≈ 0.0366 µM) | 0.02 (≈ 0.0916 µM) | 0.43 (≈ 1.97 µM) | 0.002 (≈ 0.00916 µM) | 1.63 (≈ 7.47 µM) | 0.11 (≈ 0.504 µM) | 0.01 (≈ 0.0458 µM) | 0.006 (≈ 0.0275 µM) | 0.03 (≈ 0.137 µM) | 10 | 10 |
